The values below come from patent publication US10758466B2, “Powder-based cosmetic compositions containing pelargonic acid esters” (Novamont S.p.A., priority 2015, dated 2020).

Series [1] in a line: Pigments dispersion: wet point and flow point of ester oil. The format is physicochemical. The settings on record: for Fp: amount of ester oil needed to reach the flow point; for Fp / Wp: grams per 100 g of pigment; for Wp: amount of ester oil needed to reach the wet point. The source says:
Black Iron Oxide particles (CI77499, commercially available as YPC335200 from Yipin) were dispersed in each of the ester oils of the present invention and in ester oil commonly used as cosmetic ingredients. Each sample of powder particles was wetted by the dropwise addition of one ester oil and then vigorously blended using a spatula until the wet point and the flow point were reached.
The wet point is defined as the minimum volume of dispersant solution to produce a soft coherent mass; the further minimum addition of dispersant solution to produce flow or falling off of the homogeneous mass from the vertical blade of a horizontally held spatula determines the flow point.
The amounts of dispersant solution (i.e. ester oil) needed to reach the wet point (Wp) and the flow point (Fp) were recorded and reported in the table below, expressed in grams per 100 g of pigment.

Series [2] can be described thus: UV filters dispersion: dispersibility of solid UV filter in ester oils. Also on record: key: D=homogeneous dispersion; S=sediment deposit. The format is physicochemical. The settings on record: 25° C.; for Filters dispersion t0 1%: 1% TiO2, storage 0 hours; for Filters dispersion t24 1%: 1% TiO2, storage 24 hours; for Filters dispersion t0 10%: 10% TiO2, storage 0 hours; for Filters dispersion t24 10%: 10% TiO2, storage 24 hours. Here is the method: The dispersibility of a solid UV filter in different ester oils was tested using Titania (TiO2, commercially available as Titanio Biossido Anatasio from A.C.E.F.). Various ratios of solute/solvent (1% and 10% TiO2) were prepared under stiffing at 70° C. for 30 minutes. The dispersions were then observed after a storage period of 0 hours (t0) and 24 hours (t24) at ambient temperature (25° C.) to check for the formation of any sediment deposit. Results for each ester are shown in the table below (D=homogeneous dispersion; S=sediment deposit).

As for `CCCCCCCCC(=O)OCC(C)(C)COC(=O)CCCCCCCC` [Neopentyl glycol dipelargonate], in series [1], the “Fp” value was 166.00 g and the “Wp” value came out at 61.00 g. Also, in series [2], the “Filters dispersion t0 1%” value was “D”, the “Filters dispersion t24 1%” value is “S/D”, the “Filters dispersion t0 10%” value was “D” and the “Filters dispersion t24 10%” value is “S/D”.
Regarding `CCCCCCCCC(=O)OCC(COC(=O)CCCCCCCC)OC(=O)CCCCCCCC` [Glycerol tripelargonate], in series [1], the “Fp” value was found to be 100.00 g and the “Wp” value was found to be 60.00 g. Moreover, the “less solvent required on the final composition” value in series [1] (from Fp close to Wp, compared with commonly used ester oils) is recorded as “about 30%”. Further, in series [2], the “Filters dispersion t0 1%” value is listed as “D”, the “Filters dispersion t24 1%” value is given as “D”, the “Filters dispersion t0 10%” value is “D” and the “Filters dispersion t24 10%” value was “S/D”.
Turning to `CCCCCCCCC(=O)OCC(COC(=O)CCCCCCCC)(COC(=O)CCCCCCCC)COC(=O)CCCCCCCC` [Pentaerythritol tetrapelargonate], in series [1], the “Fp” value was determined as 132.00 g and the “Wp” value is 62.00 g. Further, in series [2], the “Filters dispersion t0 1%” value is recorded as “D”, the “Filters dispersion t24 1%” value is listed as “D”, the “Filters dispersion t0 10%” value is “D” and the “Filters dispersion t24 10%” value is “D”.
`CC(C)CCCCCCOC(=O)CCCCCC(C)C` [Isononyl Isononanoate, reference compound]: in series [1], the “Fp” value is listed as 145.00 g and the “Wp” value is on record as 50.00 g. In addition, in series [2], the “Filters dispersion t0 1%” value is “D”, the “Filters dispersion t24 1%” value is given as “S”, the “Filters dispersion t0 10%” value is listed as “D” and the “Filters dispersion t24 10%” value was “S”.
